1 compound from US12251449B2, “Synthetic multidomain peptide biomaterials that inhibit inducible nitric oxide synthase” (William Marsh Rice University, priority 2019, dated 2025) can be followed below.

Values joined by “and” are separate entries in the source; they are usually repeats but may differ in a detail not shown here. Identical values can stand only once. *1 amine or outer side, *2 acyl side, *3 side chain or, on linkers, in order; H or OH if unused. Where a SMILES comes first, the peptide text is derived from it. [ ]: non-standard residue; d: D form. X1 = CC(=N)NCCCC[C@H](N[*:1])C(=O)[*:2]

Data set [1] in a line: Oscillatory rheology of peptide hydrogels. In kind it is physicochemical. The settings on record: hydrogel at 1 wt. % in HBSS with sucrose. The protocol: Oscillatory rheology. Peptide hydrogels were analyzed for their mechanical properties by oscillatory rheology using a TA Instruments AR-G2 rheometer (TA Instruments, New Castle, DE). Samples of 150 μL of 1 wt. % MDP hydrogels were prepared 24 hours prior to use for rheology, to allow full equilibration of the material. Gel samples were then transferred from a cut syringe onto the rheometer stage equipped with a 12 mm stainless-steel parallel plate set to a […] gap height. The following program was used to monitor the storage modulus (G′) and loss modulus (G″) under various conditions as has been previously published (Li & Hartgerink, 2017). Strain sweep analysis was performed using an applied strain of 0.01-200% at a frequency of 1 rad/s. Frequency sweep analysis was performed under 1% strain at 0.1-100 rad/s. Shear recovery analysis was performed by subjecting the peptide sample to 1% strain for 20 min, then 200% for 1 min, and finally 1% for 20 min, allowing for disruption of the hydrogel and monitoring of G′ and G″ recovery.

For data set [2], the target named is T1, iNOS (Mus musculus, UniProt P29477).
T1 construct: endogenous in cells; host or cells: RAW 264.7 murine macrophages stimulated with LPS and IFN-gamma
T1 sequence (P29477 1-1144): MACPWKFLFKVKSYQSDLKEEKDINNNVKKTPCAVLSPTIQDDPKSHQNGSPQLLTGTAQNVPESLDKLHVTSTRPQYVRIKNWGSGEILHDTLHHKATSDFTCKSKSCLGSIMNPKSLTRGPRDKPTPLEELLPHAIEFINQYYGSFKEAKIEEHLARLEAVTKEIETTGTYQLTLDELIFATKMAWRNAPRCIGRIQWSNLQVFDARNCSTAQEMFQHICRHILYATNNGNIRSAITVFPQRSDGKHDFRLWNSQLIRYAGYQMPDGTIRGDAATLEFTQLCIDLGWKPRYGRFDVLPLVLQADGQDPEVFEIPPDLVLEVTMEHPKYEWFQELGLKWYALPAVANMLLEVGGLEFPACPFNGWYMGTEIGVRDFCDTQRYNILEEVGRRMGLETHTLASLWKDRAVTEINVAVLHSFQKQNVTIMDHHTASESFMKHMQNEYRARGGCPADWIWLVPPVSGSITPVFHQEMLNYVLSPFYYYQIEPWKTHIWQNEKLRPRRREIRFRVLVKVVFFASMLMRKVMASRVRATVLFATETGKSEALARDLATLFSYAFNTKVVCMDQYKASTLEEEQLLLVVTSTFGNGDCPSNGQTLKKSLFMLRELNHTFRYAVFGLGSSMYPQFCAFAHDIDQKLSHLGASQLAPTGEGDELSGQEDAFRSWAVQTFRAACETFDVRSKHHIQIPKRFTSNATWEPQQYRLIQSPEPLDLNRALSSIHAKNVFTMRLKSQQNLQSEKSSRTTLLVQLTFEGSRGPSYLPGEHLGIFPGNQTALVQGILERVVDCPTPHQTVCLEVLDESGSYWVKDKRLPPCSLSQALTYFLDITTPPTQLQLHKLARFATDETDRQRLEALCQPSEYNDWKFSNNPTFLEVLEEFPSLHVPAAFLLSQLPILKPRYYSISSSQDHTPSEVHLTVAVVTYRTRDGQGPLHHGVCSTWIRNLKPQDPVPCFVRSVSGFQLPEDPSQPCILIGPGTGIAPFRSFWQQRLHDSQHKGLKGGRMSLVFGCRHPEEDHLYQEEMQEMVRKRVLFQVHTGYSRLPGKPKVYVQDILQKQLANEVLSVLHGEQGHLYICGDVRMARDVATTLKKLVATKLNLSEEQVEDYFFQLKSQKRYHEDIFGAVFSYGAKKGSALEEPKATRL
As to the kind of experiment: iNOS knockdown in vitro Greiss assay. Type of data set: cell-based. How it is done:
iNOS knockdown in vitro Greiss assay. To evaluate the iNOS knockdown efficacy of various materials, the following procedure was used to test % iNOS inhibition of RAW 264.7 cells stimulated with Lipopolysaccharide (LPS, Thermo Fisher Scientific, Rockford, IL) and recombinant mouse IFN-7 (Biolegend, San Diego, CA). RAW macrophages were prepared at a stock concentration of 2.5×10^6 cells/mL, and plated at 2.5×10^5 cells per well in 24-well plates. For samples testing the efficacy of 2-D surface cell culture, 200 μL of MDP hydrogels was applied to evenly coat the surface of each well before addition of cells. Each experimental condition was performed in triplicate. The following controls were included in every experiment, 1) media alone, 2) stimulated cells alone, and 3) unstimulated cells alone. To each well, stimulation media or normal media was then added based on experimental requirement. Stimulation media was prepared with LPS (final concentration 1 μg/mL) and IFN-7 (final concentration 100 U/mL). For samples testing material efficacy in solution (e.g. free L-NIL), after 6 hrs of incubation at 37° C. with 5% CO2 the desired concentration of inhibitor was added to achieve a range of concentrations between 1 μM and 1 mM.
In all cases after 24 hours from time of stimulation, samples of cell media were collected from each well after mixing media by pipetting before collection. Media samples were placed into a 96-well plate and centrifuged at 5000 rpm for 10 min. Supernatants were removed and placed in a new clear 96-well plate, and samples were immediately analyzed using a colorimetric Greiss Assay (Cayman Chemical, Ann Arbor, MI) to assess nitrite levels (Bryan & Grisham, 2007). Color was allowed to develop for 10 min following addition of Greiss reagents, and absorbance was read at 540 nm on a plate reader. Percent iNOS inhibition for each sample was calculated by first subtracting the absorbance of the media-only baseline, and then converting to a percent of maximum nitrite signal as determined by the internal standard of stimulated cells alone.

Regarding `CC(=N)NCCCC[C@H](NC(=O)[C@H](CCCCNC(C)=N)NC(=O)[C@H](CC(C)C)NC(=O)[C@H](CO)NC(=O)[C@H](CC(C)C)NC(=O)[C@H](CO)NC(=O)[C@H](CC(C)C)NC(=O)[C@H](CO)NC(=O)[C@H](CC(C)C)NC(=O)[C@H](CO)NC(=O)[C@H](CC(C)C)NC(=O)[C@H](CO)NC(=O)[C@H](CC(C)C)NC(=O)[C@H](CO)NC(=O)[C@H](CCCCNC(C)=N)NC(=O)[C@H](CCCCNC(C)=N)NC(C)=O)C(N)=O` [L-NIL-MDP] (Ac-[X1][X1]SLSLSLSLSLSL[X1][X1]-NH2), in data set [1], the “loss modulus (G″)” value was 20-25 Pa and ~25 Pa; the “storage modulus (G′)” value is 260-300 Pa and ~300 Pa. Further, in data set [2] (hydrogel surface culture compared with free L-NIL in solution), the “free L-NIL concentration giving a comparable level of iNOS inhibition” value was approximately 100 µM. Moreover, the “iNOS inhibition (in words)” value in data set [2] (stimulated RAW macrophages cultured on the hydrogel) is listed as “greatest degree of iNOS inhibition”.
